Data published in patent US20080152589A1, “Diagnostics and Therapeutics of Neurological Disease” (priority 2006, published 2008).

Tests used:
[1] = self-administered questionnaire on lithium-induced side-effects, stratified by GSK3B and MAPT haplotype; type: in vivo, human; conditions: for Odds Ratio, hand tremor present vs absent (pooled High GSKΔexon9 and Low GSKΔexon9+11 haplotypes vs others): lithium treatment; for mean overall side-effect score (SE score): patients administered lithium, 24 items, maximum total score 96
Description: Participants (n=84) suffering from a neurological disease who had been administered lithium as a therapeutic were assessed for the prevalence and pattern of lithium-induced side-effects using a self-administered questionnaire. This questionnaire was a modified version of the data collection form from a clinical trial, asking participants to rate 24 side-effect items as ‘Not present’, ‘Mild’, ‘Moderate’, ‘Severe’ and ‘Very Severe’. The 24 items listed include: nausea, vomiting, diarrhea, constipation, weight gain, weight loss, dizziness or light-headedness, blurred vision, hand tremor, muscle weakness, slurred speech, lack of coordination or unsteady gait, poor concentration mental slowing or confusion, forgetfulness or difficulty with memory/recall, drowsiness or sleepiness, worsening mood symptoms, skin rash, hair loss, thirst, dry mouth, metallic taste in mouth, loss of ability to taste food, need to pass urine much more frequently or more urgently, urinary incontinence. An overall side-effect score (SE score) was calculated for each patient based on the above 24 items and their respective grading. A score of zero was given for an absent side effect and increased to a score of 4 for a very severe side effect to give a maximum total score of 96 for each patient.
Each individual was genotyped and classified as having 0, 1 or 2 copies of the disease ‘risk’ GSK3B haplotypes (A-T-C, T-C-C and A-C-T) based on the three functional polymorphisms rs375557, rs334558 and rs6438552. In the subset of patients having a GSK-3B ‘risk’ haplotype and at least one H2 MAPT haplotype, a lower SE score was observed (12.3±2.2) compared to patients with no ‘risk’ haplotype (14.6±2.0).
The relationship between the ‘risk’ haplotypes in GSK3B and common side effect of lithium therapy, hand tremor, was then examined, the results of which are shown in Table 8. […] This information is pertinent, because lithium, which is a therapeutic agent for a number of disorders including bipolar affective disorders and Alzheimer's disease, has significant side effects. Accordingly, assays that detect the presence of a GSK-3B ‘risk’ haplotype optionally combined with detection of a MAPT H2 haplotype are useful for determining subjects likely to respond to treatment and/or that are unlikely to develop a side-effect as a result of treatment.

[2] = biological target: endogenous Tau of COS-7 cells; test: cell-based or functional assay

levels of Tau [pSer396] by ELISA in transfected COS-7 cells, compared with the other GSK-3β cDNAs [2] [fold] | Molecule | Odds Ratio, hand tremor present vs absent (pooled High GSKΔexon9 and Low GSKΔexon9+11 haplotypes vs others) ([1]; MAPT H1/H1) | Odds Ratio, hand tremor present vs absent (pooled High GSKΔexon9 and Low GSKΔexon9+11 haplotypes vs others) ([1]; MAPT H1/H2 + H2/H2 (at least one H2 haplotype)) | Odds Ratio, hand tremor present vs absent (pooled High GSKΔexon9 and Low GSKΔexon9+11 haplotypes vs others) ([1]; all MAPT haplotypes) | mean overall side-effect score (SE score) ([1]; GSK-3B 'risk' haplotype and at least one H2 MAPT haplotype) | mean overall side-effect score (SE score) ([1]; no 'risk' haplotype)
 | [Li] [lithium] | 1.32 | 0.24 | 0.57 | 12.3±2.2 | 14.6±2.0
2.5 | GSKΔexon9+11 (GSK-3β splice isoform lacking exons 9 and 11) (from UniProt P49841 1-420) (enzyme) |  |  |  |  | 
